From the text: In further embodiments, the propofol concentration is from about 0.01 wt.-% to about 80 wt.-%, or from about 0.1 wt-% to about 50 wt.-%, or from about 1 wt.-% to about 20 wt.-%, or from about 2 wt.-% to about 20 wt.-%, respectively. In further embodiments, the strength is about 1 wt.-% or higher, such as about 2 wt.-%, 5 wt.-%, 10 wt.-%, 20 wt.-%, or 25 wt.-%.

## CC(C)c1cccc(C(C)C)c1O [propofol, 2,6-di(propan-2-yl)phenol]
SFA solutions
  propofol concentration possible in SFA solutions: up to 960 mg/mL
In most SFA's including F4H5, F6H6 and F6H8
  miscibility with SFA's: freely miscible

Source: patent US8796340B2, “Pharmaceutical composition comprising propofol” (Novaliq GmbH, priority 2009, dated 2014)
